# According to US8466185B2, “Methods and assays for detecting and treating hypoglycemia” (priority 2008, dated 2013):
# Entries after “also recorded” stand apart in the source; their conditions may differ.
# Key:
# human islets [1] = assay: in vitro perifusion, glucagon secretion from human islets; type: cell-based; conditions: for effect on basal glucagon secretion or glucagon responses to glutamate: 100 μM
# Protocol: (§2) A high-capacity, automated perifusion system was developed to dynamically measure hormone secretion from pancreatic islets. A low pulsatility peristaltic pump pushed HEPES-buffered solution (mM: 125 NaCl, 5.9 KCl, 2.56 CaCl2, 1 MgCl2, 25 HEPES, and 0.1% BSA; pH 7.4; and a perifusion rate of 100 μL/min) through a column containing 100 pancreatic islets immobilized in Bio-Gel P-4 Gel (BioRad, Hercules, Calif.). Except otherwise stated, glucose concentration was adjusted to 3 mM for all experiments. Stimuli were applied with the perifusion buffer. The perifusate was collected in an automatic fraction collector designed for a 96 well plate format. The columns containing the islets and the perifusion solutions were kept at 37° C., and the perifusate in the collecting plate was kept at <4° C. Perifusates were collected every minute. Hormone release in the perifusate was determined with the human or mouse Endocrine LINCOplex Kit following manufacturer's instructions (Linco research, St. Charles, Mo.).
# mouse islets [2] = assay: perifusion, glucagon secretion from mouse islets; type: cell-based, mouse (C57Bl/6)
# Protocol: as §2
# human islets [3] = assay: in vitro perifusion, insulin release from human islets; conditions: 100 μM
# Protocol: as §2
# C57BL/6 mice = assay: in vivo responses to iGluR agonists injected i.p.; parameters: species or system mouse
# Protocol: (§1) We examined in vivo responses to iGluR agonists by injecting C57BL/6 mice i.p. with either PBS (n=4), monosodium glutamate (30 mg/kg; n=7), or AMPA (15 mg/kg; n=8). To determine whether blocking iGluRs exacerbates insulin-induced hypoglycemia, we injected the AMPA/kainate iGluR antagonist NBQX (Tocris, Ellisville, Mo.) i.p. at 20 mg/kg 30 minutes before mice were treated with insulin to induce hypoglycemia.
# monkey islets [4] = assay: in vitro perifusion, insulin release from monkey islets; conditions: 100 μM; not shown
# human islets [5] = type: cell-based; conditions: CNQX 10 μM; measured at 8 minutes after reducing glucose
# Protocol: Perifusion of the islets was stopped after addition of the stimulus to allow the islet secretory products to accumulate and then resumed after 10 minutes.
# [6] = system: monkey islets and dispersed single islet cells; assay: [Ca^2+]i imaging (Fura-2) of monkey islets and islet cells; type: cell-based, monkey (Macacca fascicularis); conditions: nifedipine 10 μM; for inhibition of [Ca^2+]i responses to kainate: CNQX 10 μM, La^3+ 30 μM
# Protocol: Imaging of [Ca^2+]i was performed as described elsewhere (Cabrera et al., 2006). […] Glucose was added to give a final concentration of 3 mM. Islets or dispersed islet cells were incubated in Fura-2 AM (2 μM; 1 hour) and placed in a closed small-volume imaging chamber (Warner Instruments, Hamden, Conn.). Stimuli were applied with the bathing solution. Islets loaded with Fura-2 were excited alternatively at 340 and 380 nm with a monochromator light source (Cairn. Research Optoscan Monochromator, Cairn Research Ltd, Faversham, UK). Images were acquired with a Hamamatsu camera (Hamamatsu Corp, Japan) attached to a Zeiss Axiovert 200 microscope (Carl Zeiss, Jena, Germany). Changes in the 340/380 fluorescence emission ratio over time were analyzed in individual islets and dispersed cells using Kinetic Imaging AQM Advance software (Kinetic Imaging, N.C.). Peak changes in the fluorescence ratio constituted the response amplitude.
# [7] = system: human islets and dispersed single islet cells; assay: [Ca^2+]i imaging (Fura-2) of human islets and dispersed islet cells; type: cell-based; conditions: CNQX 10 μM
# Protocol: Glucose was added to give a final concentration of 3 mM. Islets or dispersed islet cells were incubated in Fura-2 AM (2 μM; 1 hour) and placed in a closed small-volume imaging chamber (Warner Instruments, Hamden, Conn.). Stimuli were applied with the bathing solution. Islets loaded with Fura-2 were excited alternatively at 340 and 380 nm with a monochromator light source (Cairn. Research Optoscan Monochromator, Cairn Research Ltd, Faversham, UK). Images were acquired with a Hamamatsu camera (Hamamatsu Corp, Japan) attached to a Zeiss Axiovert 200 microscope (Carl Zeiss, Jena, Germany). Changes in the 340/380 fluorescence emission ratio over time were analyzed in individual islets and dispersed cells using Kinetic Imaging AQM Advance software (Kinetic Imaging, N.C.). Peak changes in the fluorescence ratio constituted the response amplitude.
# monkey islets [8] = assay: microfluorometric determination of endogenous glutamate release from islets; type: cell-based; conditions: kainate 100 μM; KCl 30 mM
# Protocol: Endogenous glutamate release from pancreatic islets was measured with the Amplex Red Glutamic Acid Assay Kit (Molecular Probes) adapted for microscopic microfluorometric detection (Akagi et al., 2003). In this assay, released glutamate is a substrate in an enzymatic chain reaction that generates the highly fluorescent product resorufin (Molecular Probes, Eugene, Oreg.). L-glutamate is oxidized by glutamate oxidase to produce α-ketoglutarate, NH4, and H2O2. Hydrogen peroxide reacts with the Amplex Red reagent in a reaction catalyzed by horseradish peroxidase to generate resorufin. Pancreatic islets were allowed to attach to a glass coverslip previously coated with poly-D-lysine. The coverslip was mounted in a closed small-volume imaging chamber (Warner Instruments) and perifused with the HEPES-buffered solution containing the stimuli. Resorufin fluorescence was excited at 510 nm, and the emission recorded at 590 nm using the same imaging system used to measure [Ca^2+]i (see above).
# mice [9] = type: in vivo, mouse; conditions: NBQX 20 mg/kg i.p.
# Protocol: as §1
# In initial experiments, mice were injected with insulin (1.5 U/kg; i.p.) to induce hypoglycemia.
# mice [10] = assay: hyperinsulinemic-hypoglycemic clamp in conscious mice; type: in vivo, mouse; conditions: NBQX 10 mg/kg iv versus saline
# Protocol: To provide a standardized hypoglycemic stimulus we further conducted studies using the hyperinsulinemic-hypoglycemic clamp. At least 4 days before the experiments, mice were anesthetized with isoflurane, and an indwelling catheter was inserted in the left jugular vein and externalized through an incision in a skin flap behind the head. Mice were fasted for 4 hours and placed in individual plastic containers for tail cut sampling. […] A priming dose of insulin (100 mU/kg) was administered, followed by a constant infusion rate of 20 mU/kg/min (Actrapid, Novo Nordisk). The plasma glucose concentration was determined at 10 min intervals using a One Touch Ultra glucose meter. Glucose (30%) was infused at a variable rate to maintain the plasma glucose concentration at the hypoglycemic levels (˜3 mM). At time 50 min, a hyperinsulinemic-hypoglycemic clamp was achieved. Blood glucose levels were kept at the steady state (3 mM) and NBQX was administered as a bolus (10 mg/kg) at time 60 min, followed by infusion (10 mg/kg) until the end of the experiment. A control experiment was performed using saline (0.9% NaCl) following the same protocol used for NBQX. […] Animals were euthanized by an over-dose of pentobarbital.
# [11] = system: isolated human islet cells; assay: whole-cell patch clamp recordings of dispersed human islet cells; type: cell-based; conditions: NBQX 10 μM; kainate 100 μM
# Protocol: Membrane currents were measured using whole-cell patch clamp recordings of dispersed human islet cells. All recordings were amplified using an EPC10 patch-clamp amplifier and digitized and analyzed using Patchmaster software (Heka Elektronik, Lambrecht, Germany). Pipettes were pulled from borosilicate glass capillaries on a horizontal programmable puller (DMZ Universal Puller, Zeitz-Instrumente, Augsburg, Germany). Pipettes with a resistance of 5-7 MΩ were filled with a pipette solution containing (in mM): 150 NMG (N-methyl-D-Glucamine), 10 EGTA, 1 MgCl2, 2 CaCl2, 5 HEPES and 3 Mg-ATP (pH 7.15). The bath solution contained (in mM): 138 NaCl, 5.6 KCl, 1.2 MgCl2, 2.6 CaCl2, 5 HEPES and 10 TEA (pH7.4). Cells were voltage-clamped at −70 mV. Ligands (e.g. kainate) were applied using the SF-77B Perfusion Fast-Step system (Warner Instruments, Hamden, Conn.), which allows rapid change of solutions bathing a single cell or membrane patch attached to a patch electrode. […] Thus, it is most likely that cells responding to kainate in our electrophysiological experiments were α-cells.
# mouse islets [12] = assay: perifusion of mouse islets with β cells destroyed by streptozotocin versus intact islets; type: cell-based; conditions: arginine 5 mM; streptozotocin-treated versus intact islets
# Protocol: This experiment was performed with mouse islets. Two samples were perifused in parallel (“a” and “b”). In “a” (blue curve and blue bar), but not in “b” (red curve and red bar) the β cells were selectively destroyed with streptozotocin. This absence of β cells generates type 1 diabetes-like condition in vitro. The glucagon release profile in panel “A” was obtained by using this model. […] Note that the non specific stimulus arginine is not able to differentiate a functionally impaired α cell in the absence of β cells.
# At t=5 min, both samples were stimulated with 100 μM kainate for 5 min. The glucose was increased to 11 mM for 10 minutes and decreased again to 3 mM for the duration of the perifusion. At t=45 min, both samples (v) were stimulated with 5 mM Arginine. […] Kainate is a glutamate analog that is not metabolizable, and therefore a preferred agonist of the AMPA/Kainate receptors. Error bars represent the standards deviations for n=3 perifusions. Comparison were performed by an independent t-test.
# For example, in some embodiments the present invention are directed to an in vitro model in which we destroy selectively the beta cells with, for example, streptozotocin, thus creating a situation that mimics type 1 diabetes. The treated islets are composed mainly of alpha cells. […] To examine if alpha cells in islets depleted of beta cells had impaired glutamate signaling, we stimulated them with kainate, an agonist for ionotropic glutamate receptors.
smiles,measurement,setting,value
NC1(C(=O)O)C[C@H](C(=O)O)[C@H](C(=O)O)C1 (stereo partly shown) [ACPT-1],effect on basal glucagon secretion or glucagon responses to glutamate,human islets [1],did not elicit changes in glucagon secretion; also recorded: did not affect basal glucagon secretion or glucagon responses to glutamate
same,effect on basal or glutamate-induced glucagon secretion,mouse islets [2]; 100 μM,did not affect basal or glutamate-induced glucagon secretion; also recorded: did not elicit changes in glucagon secretion
Cc1o[nH]c(=O)c1CC(N)C(=O)O (stereo not shown) [AMPA],glucagon release / glucagon secretion,"human islets [1]; agonist 100 μM, 3 mM glucose",elicited strong glucagon secretion; also recorded: Increases in glucagon release could also be elicited
same,insulin release,human islets [3],"Neither kainate (100 μM), glutamate (100 μM), nor AMPA (100 μM) stimulated increases in insulin release"
same,glucagon release / secretion,mouse islets [2]; 100 μM,stimulated glucagon secretion
same,convulsions indicative of central nervous penetration,C57BL/6 mice; AMPA 15 mg/kg i.p.,did not induce convulsions
same,plasma insulin concentrations,"C57BL/6 mice; glutamate 30 mg/kg, AMPA 15 mg/kg, i.p.",not affected; also recorded: did not change
same,plasma glucagon concentrations,"C57BL/6 mice; glutamate 30 mg/kg, AMPA 15 mg/kg, i.p., 30 minutes after treatment",increased plasma glucagon concentrations
same,plasma glucose concentrations,"C57BL/6 mice; glutamate 30 mg/kg, AMPA 15 mg/kg, i.p., thirty minutes after injection",increased glucose levels; also recorded: increased plasma glucose concentrations
same,insulin release,monkey islets [4],"Neither kainate (100 μM), glutamate (100 μM), nor AMPA (100 μM) stimulated increases in insulin release"
N#Cc1cc2[nH]c(=O)c(=O)[nH]c2cc1[N+](=O)[O-] [CNQX],block of glutamate-induced glucagon responses,human islets [1]; CNQX 10 μM,could be blocked
same,inhibition of glucagon response to lowering glucose from 6 mM to 1 mM,human islets [5],54%
same,inhibition of [Ca^2+]i responses to kainate,[6],inhibited; also recorded: blocked
same,block of [Ca^2+]i responses to glutamate,[7],could be blocked
NC(C(=O)O)(c1ccc(P(=O)(O)O)cc1)C1CC1 (stereo not shown) [CPPG],effect on basal glucagon secretion or glucagon responses to glutamate,human islets [1],did not affect the glutamate-induced glucagon response; also recorded: did not affect basal glucagon secretion or glucagon responses to glutamate
same,effect on basal or glutamate-induced glucagon secretion,mouse islets [2]; 100 μM,did not affect basal or glutamate-induced glucagon secretion; also recorded: did not affect the glutamate-induced glucagon response
O=[N+]([O-])c1cc2nc(O)c(O)nc2cc1[N+](=O)[O-] [DNQX],block of glutamate-stimulated glucagon release,"mouse islets [2]; DNQX 10 μM, glutamate 100 μM",blocked
[Cl-].[K+] [KCl],glutamate release (resorufin fluorescence),monkey islets [8],induced significant glutamate release; also recorded: elicited large increases in glutamate release
[La+3] [La^3+],kainate-stimulated glucagon secretion in presence of Ca^2+ channel blockers,human islets [1],strongly diminished
same,inhibition of [Ca^2+]i responses to kainate,[6],inhibited; also recorded: abolished
NS(=O)(=O)c1cccc2c1c([N+](=O)[O-])cc1nc(O)c(O)nc12 [NBQX],sedation,mice [9],did not cause sedation
same,insulin-induced drop in glucose plasma levels,"mice [9]; insulin 1.5 U/kg i.p., not shown",increased the insulin-induced drop in glucose plasma levels
same,glucose infusion rate needed to maintain glycemia (~3 mM),mice [10],needed larger infusion rates of glucose; also recorded: significantly larger
same,plasma glucagon / glucagon secretion in response to hypoglycemia,mice [10],lower; also recorded: significantly diminished
same,block of kainate-evoked inward currents,[11],could be blocked
N=C(N)NCCC[C@H](N)C(=O)O [arginine],arginine-induced glucagon release in absence versus presence of β cells,mouse islets [12],not statistically different
COC(=O)C1=C(C)NC(C)=C(C(=O)OC)C1c1ccccc1[N+](=O)[O-] [nifedipine],reduction of kainate-induced [Ca^2+]i responses,[6],~60%
N[C@@]1(C(=O)O)CC[C@@H](C(=O)O)C1 [trans-ACPD],effect on basal glucagon secretion or glucagon responses to glutamate,human islets [1],did not affect basal glucagon secretion or glucagon responses to glutamate
same,effect on basal glucagon secretion or glucagon responses to glutamate,human islets [1]; listed as tACPD,did not elicit changes in glucagon secretion
same,effect on basal or glutamate-induced glucagon secretion,mouse islets [2]; 100 μM,did not affect basal or glutamate-induced glucagon secretion
same,effect on basal or glutamate-induced glucagon secretion,"mouse islets [2]; 100 μM, listed as tACPD",did not elicit changes in glucagon secretion
